The test system of one series is MT-2 cells. Kind of series: Agent-induced cytotoxicity in cell-free inactivation assay. Also noted: TCTD50 Cytotoxicity: unit not given here. The class given is cell-based. The settings on record: for TCTD50 Cytotoxicity: MT-2 cells, day 7. As for the experimental part: (§1) Pre-titered concentrated virus (HIV-1 RF) stock (10 μL) was mixed with 90 μL of the test agent formulation in microtubes. At the end of the two-minute exposure period, serial 10-fold dilutions were carried out with a multichannel pipettor so that the sample dilutions were performed simultaneously. Aliquots (100 μL) of the serial dilutions were then transferred simultaneously to another 96-well plate which had been pre-seeded with MT-2 cells in RPMI medium supplemented with FBS. Four wells were used for each dilution of virus. The cultures were incubated at 37° C. in a humidified atmosphere of 5% CO2. The cultures were scored microscopically for virus-induced cytopathic effect and agent-induced cytotoxicity on day 4 and 7 of incubation, and day 7 reported. Cultures were routinely maintained 2 to 3 days after initial analysis, and observed visually and microscopically for abnormalities.

The test system of the next series is HIV-1 RF. Kind of series: Cell-free HIV inactivation assay. The following applies: for virucidal / antiviral activity, in words: HIV as model organism, positive = minimum reduction in virus titer of 2 logs; for Log Reduction in Virus Titer: two-minute exposure, day 7, virus control 6.0 log10 TCID50/0.1 mL. Format: cell-based, human immunodeficiency virus (HIV). Here is the method: as §1

Series [1] relates to human spermatozoa (swim-up sperm). As to the kind of experiment: Sperm motility time response (real-time and post-dilution/post-wash). The class given is cell-based. The following applies: 0.3 mg/mL, mean ± SD, n=5; for Real-Time Motility (%): initial solvent DMSO; for Post-Dilution Motility (%): then washed, 30 min post-washing. As for the experimental part: (§2) Motility and viability time-responses were studied with a sophorolipid testing concentration of 0.3 mg/mL. At this concentration no effect of the solvent was observed. All sperm used for this experiment and throughout the study were obtained from human semen samples through a one hour swim-up separation technique in BWW medium+0.1% HSA. 100 uL of swim-up sperm were incubated with 1 uL of compound for the time points of 2 min, 30 min, 2 hrs, and 4 hrs and assessed for progressive motility (“real-time” assessment). n=5 for all time points. Co-incubation samples were diluted with 1 mL of BWW medium+0.1% HSA. The tubes were centrifuged, the supernatant removed, and the sperm resuspended in the original volume of 100 uL BWW+0.1% HSA and incubated at 37° C., 5% CO2. At 30 min post-washing, motility was again assessed. After the 30 min post-wash assessment, 900 uL of HOS medium was added to the sample and tubes were incubated for 30 min at 37° C. Post-incubation, samples were assessed for viability. Motility and viability were quantified “manually” under dark field microscopy (Nikon E-800).

The test system is the same in series [2]. As to the kind of experiment: Sperm viability after washing (HOS medium). The class given is cell-based. The settings on record: 0.3 mg/mL, post-wash, mean ± SD, n=5. As for the experimental part:
as §2

The mark [3] stands for this setting: Percent of agent during exposure 0.03.
[4] abbreviates: Percent of agent during exposure 0.09.
The mark [5] stands for this setting: Percent of agent during exposure 0.3.

`CCOC(=O)CCCCCCC/C=C\CCCCCCC(C)O[C@@H]1O[C@H](CO)[C@@H](O)[C@H](O)[C@H]1O[C@@H]1O[C@H](CO)[C@@H](O)[C@H](O)[C@H]1O` (stereo partly shown): the “cytotoxicity, in words” value with MT-2 cells is given as “reduced cytotoxicity”. Moreover, the “virucidal / antiviral activity, in words” value in the series with HIV-1 RF is reported as “high activity”. In the series on HIV-1 RF (comparison among the four sophorolipids of Table 2), the “selectivity index (virucidal activity vs cytotoxicity), in words” value is on record as “best selectivity index”.
`CCOC(=O)CCCCCCC/C=C\CCCCCCC(C)O[C@@H]1O[C@H](CO)[C@@H](O)[C@H](O)[C@H]1O[C@@H]1O[C@H](CO)[C@@H](O)[C@H](O)[C@H]1O` (relative stereo) [SLET, Ethyl 17-L-[(2′-O-β-D-glucopyranosyl-β-D-glucopyranosyl)-oxy]-cis-9-octadecenoate]: the “TCTD50 Cytotoxicity” value with MT-2 cells (setting [3]) is on record as “≦0.5”; in the series with MT-2 cells (setting [4]), “≦0.5”; in the series with MT-2 cells (setting [5]), 1.5. Moreover, the “Real-Time Motility (%)” value in series [1] (2 min incubation) turned out to be 0.73 ± 0.81%; in series [1] (30 min incubation) it was 0.00 ± 0.00%; in series [1] (2 hour incubation) it was 0.00 ± 0.00%. For the same compound, the “Post-Dilution Motility (%)” value is reported as 3.37 ± 3.87% in series [1] (2 min incubation), 0.00 ± 0.00% in series [1] (30 min incubation) and 0.00 ± 0.00% in series [1] (2 hour incubation). For the same compound, the “Post-Dilution Viability (%)” value in series [2] (2 min incubation) turned out to be 2.36 ± 5.29%; in series [2] (30 min incubation), 1.00 ± 2.24%; in series [2] (2 hour incubation), 0.00 ± 0.00%. Moreover, the “virucidal / antiviral activity, in words” value with HIV-1 RF (listed as ethyl ester form of sophorolipid) is “highly effective”. Further, the “Log Reduction in Virus Titer” value stood at 2.0 Log in the series on HIV-1 RF (setting [3]), 3.3 Log in the series with HIV-1 RF (setting [4]) and 4.3 Log with HIV-1 RF (setting [5]).
Regarding `CCOC(=O)CCCCCCC/C=C\CCCCCCC(C)O[C@@H]1O[C@H](COC(C)=O)[C@@H](O)[C@H](O)[C@H]1O[C@@H]1O[C@H](COC(C)=O)[C@@H](O)[C@H](O)[C@H]1O` (relative stereo) [SLETDA, Ethyl 17-L[(2′-O-β-D glucopyranosyl-β-D-glucopyranosyl)-oxy]-cis-9-octadecenoate 6′,6″-diacetate], the entries for the “TCTD50 Cytotoxicity” value in the series with MT-2 cells (setting [3]), in the series on MT-2 cells (setting [4]) and in the series with MT-2 cells (setting [5]) were “≦0.5”, 1.5 and 1.5, respectively. Besides, the “Real-Time Motility (%)” value in series [1] (2 min incubation), in series [1] (30 min incubation) and in series [1] (2 hour incubation) was 0.00 ± 0.00% in each case. The “Post-Dilution Motility (%)” value in series [1] (2 min incubation), in series [1] (30 min incubation) and in series [1] (2 hour incubation) was 0.00 ± 0.00% each time. For the same compound, the “Post-Dilution Viability (%)” value in series [2] (2 min incubation) was determined as 0.40 ± 0.90%; in series [2] (30 min incubation), 0.20 ± 0.45%; in series [2] (2 hour incubation), 0.00 ± 0.00%. For the same compound, the results for the “Log Reduction in Virus Titer” value with HIV-1 RF (setting [3]), in the series with HIV-1 RF (setting [4]) and in the series on HIV-1 RF (setting [5]) were 1.7 Log, “≧4.5 Log” and “≧4.5 Log”, respectively.
Regarding `CCCCCCOC(=O)CCCCCCC/C=C\CCCCCCC(C)O[C@@H]1O[C@H](CO)[C@@H](O)[C@H](O)[C@H]1O[C@@H]1O[C@H](CO)[C@@H](O)[C@H](O)[C@H]1O` (relative stereo) [SLHEX, Hexyl 17-L-[(2′-O-β-D-glucopyranosyl-β-D-glucopyranosyl)-oxy]-cis-9-octadecenoate], the “TCTD50 Cytotoxicity” value in the series with MT-2 cells (setting [3]) was “≦0.5”; in the series on MT-2 cells (setting [4]) it was “≦0.5”; with MT-2 cells (setting [5]), 1.5. In addition, the “Real-Time Motility (%)” value in series [1] (2 min incubation) amounted to 1.26 ± 1.22%; in series [1] (30 min incubation), 0.00 ± 0.00%; in series [1] (2 hour incubation) it was 0.00 ± 0.00%. Moreover, the results for the “Post-Dilution Motility (%)” value in series [1] (2 min incubation), in series [1] (30 min incubation) and in series [1] (2 hour incubation) were 1.55 ± 2.18%, 0.00 ± 0.00% and 0.00 ± 0.00%, respectively. Further, the entries for the “Post-Dilution Viability (%)” value in series [2] (2 min incubation), in series [2] (30 min incubation) and in series [2] (2 hour incubation) were 2.27 ± 3.22%, 1.10 ± 2.46% and 0.00 ± 0.00%, respectively. The “Log Reduction in Virus Titer” value is 0 Log in the series with HIV-1 RF (setting [3]), 3.0 Log with HIV-1 RF (setting [4]) and 4.0 Log in the series with HIV-1 RF (setting [5]).

The values are drawn from US20040242501A1, “Spermicidal and virucidal properties of various forms of sophorolipids” (priority 2003, published 2004).
